From US20110190336A1, “AZABENZIMIDAZOLONES” (CARA THERAPEUTICS, INC., priority 2008, published 2011)

Target: T1, human DP2 receptor (Homo sapiens, UniProt Q9Y5Y4)
T1 construct: expressed in transfected cells; host or cells: CHO-K1 FLP-In (Invitrogen, catalog no. R758-07), stably transfected
T1 sequence (Q9Y5Y4 1-395): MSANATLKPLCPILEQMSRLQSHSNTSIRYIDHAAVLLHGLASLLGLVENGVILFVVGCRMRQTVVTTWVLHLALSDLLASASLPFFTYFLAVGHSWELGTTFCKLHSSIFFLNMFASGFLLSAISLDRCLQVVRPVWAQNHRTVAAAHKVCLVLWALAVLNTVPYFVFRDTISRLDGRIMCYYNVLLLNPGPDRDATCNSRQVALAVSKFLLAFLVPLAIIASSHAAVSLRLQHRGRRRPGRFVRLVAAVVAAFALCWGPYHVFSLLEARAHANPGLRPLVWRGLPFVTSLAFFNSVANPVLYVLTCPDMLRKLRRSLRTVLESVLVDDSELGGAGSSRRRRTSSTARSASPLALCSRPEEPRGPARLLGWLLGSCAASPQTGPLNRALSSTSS
Assay: Prostaglandin D2 binding inhibition assay (scintillation proximity assay, 3H PGD2, membranes of transfected CHO cells)
Conditions: SPA, 5.5 nM 3H PGD2, CHO-K1 FLP-In human DP2 membranes; upper limit determinable 30 μM; read-out: IC50 ranges for inhibition of PGD2 binding to human DP2
Description: The ability of compounds to inhibit binding of prostaglandin D2 (PGD2) to the human DP2 receptor was measured using a scintillation proximity assay (SPA). Chinese Hamster Ovary FLP-In cell lines (CHO-K1 FLP-In, Invitrogen, catalog no. R758-07) were stably transfected with the human DP2 gene (Genebank: AY507142). Cell lines were grown in suspension in EX-CELL 302 CHO Serum-free medium (Sigma, catalog no. 14324C) supplemented with 1% Fetal Bovine Serum (Invitrogen no. 10099-141), 2 mM L-glutamine (Invitrogen, catalog no. 25030-081) and 0.5 mg/ml Hygromycin B (Invitrogen, catalog no. 10687-010). Cells were collected by centrifugation in a Beckman Coulter Allegra X-12R centrifuge at 150×g for 5 minutes at room temperature.
Membranes from transfected cells were isolated for binding assays. Cell pellets containing approximately 2×10^9 cells were resuspended in 35 ml of cold membrane homogenization buffer (10 mM Tris (Sigma, catalog no. T2663), 1 mM EDTA (Fluka BioChemika no. 03690), and 70 μl of protease inhibitor cocktail (Sigma, catalog no. P8340)). Cells were homogenized with 30 strokes of a dounce homogenizer (Kontes, catalog no. 885303-0040), and the solution centrifuged at 200×g for 10 minutes. The supernatant was transferred to a 50 ml Oakridge tube (Beckman, catalog no. 357000) and centrifuged in a Beckman Coulter Avanti J-26×PI centrifuge with a JA30.50 rotor at 81,000×g for 1 hour at 15° C. The pellet was resuspended in membrane storage buffer (50 mM Tris (Sigma, catalog no. T2663), 2.5 mM EDTA (Fluka BioChemika no. 03690), 5 mM magnesium chloride (Sigma, catalog no. M1028), 100 mg/ml sucrose (Sigma, catalog no. 50389) and a 1:500 dilution of protease inhibitor cocktail (Sigma, catalog no. P8340)) and the total protein was quantitated using a BCA protein measurement kit (Pierce, catalog no. 23225). Aliquots were frozen at −80° C. until used. Compounds were tested for their ability to inhibit PGD2 binding to the purified membranes. 5 μg of the purified membranes, 0.25 mg of wheat germ agglutinin PVT SPA beads (GE Healthcare, catalog no. RPNQ0060) and 5.5 nM of ^3H PGD2 (PerkinElmer, catalog no. NET-616) were mixed in assay buffer ((50 mM Tris (Sigma, catalog no. T2663), 10 mM magnesium chloride (Sigma, catalog no. M1028), 100 mM sodium chloride (Sigma, catalog no. S6546) and 0.1% bovine serum albumin (Sigma, catalog no. A2153)). Using a Multidrop bulk dispenser, 75 μl of the assay mixture was dispensed in Optiplates (PerkinElmer, catalog no. 6007299) containing the compounds to be tested. After a 60 minute incubation period at room temperature, the plates were read on a PerkinElmer Topcount NXT HTS, and individual wells were quantitated as counts per minute (CPM). Data were expressed as a percent of the difference between the maximum and minimum responses. IC50 values (the concentration of compound producing 50% of the maximal response) were determined using a two-parameter non-linear regression algorithm analyzed using CambridgeSoft Bioassay software. Table 2 gives the range of IC50 values for claimed compounds in the binding assay.

Compound | IC50 [µM]
CC(C)CS(=O)(=O)N1CCC(n2c(=O)n(CC(=O)O)c3cccnc32)CC1 [Compound 48, 2-(3-(1-(isobutylsulfonyl)piperidin-4-yl)-2-oxo-2,3-dihydro-1H-imidazo[4,5-b]pyridin-1-yl)acetic acid] | 1 to 10
Cc1c(F)cccc1S(=O)(=O)N1CCC(n2c(=O)n(CC(=O)O)c3cccnc32)CC1 [Compound 96, 2-(3-(1-(3-fluoro-2-methylphenylsulfonyl)piperidin-4-yl)-2-oxo-2,3-dihydro-1H-imidazo[4,5-b]pyridin-1-yl)acetic acid] | < 1
O=C(O)Cn1c(=O)n(C2CCN(S(=O)(=O)c3ccc(Cl)cc3F)CC2)c2ncccc21 [Compound 30, 2-(3-(1-(4-chloro-2-fluorophenylsulfonyl)piperidin-4-yl)-2-oxo-2,3-dihydro-1H-imidazo[4,5-b]pyridin-1-yl)acetic acid] | < 1
O=C(O)Cn1c(=O)n(C2CCN(S(=O)(=O)c3ccc(Cl)cc3Cl)C2)c2ncccc21 (centres unmarked) [Compound 112, 2-(3-(1-(2,4-dichlorophenylsulfonyl)pyrrolidin-3-yl)-2-oxo-2,3-dihydro-1H-imidazo[4,5-b]pyridin-1-yl)acetic acid] | 1 to 10
O=C(O)Cn1c(=O)n(C2CCN(S(=O)(=O)c3ccc4ccccc4c3)CC2)c2ncccc21 [Compound 59, 2-(3-(1-(naphthalen-2-ylsulfonyl)piperidin-4-yl)-2-oxo-2,3-dihydro-1H-imidazo[4,5-b]pyridin-1-yl)acetic acid] | 1 to 10
Cc1ccc(S(=O)(=O)N2CCC[C@H](n3c(=O)n(CC(=O)O)c4cccnc43)C2)c(F)c1 [Compound 110, (S)-2-(3-(1-(2-fluoro-4-methylphenylsulfonyl)piperidin-3-yl)-2-oxo-2,3-dihydro-1H-imidazo[4,5-b]pyridin-1-yl)acetic acid] | 1 to 10
O=C(O)Cn1c(=O)n(C2CCN(S(=O)(=O)c3ccc(F)cc3Cl)CC2)c2ccncc21 [Compound 140, 2-(1-(1-(2-chloro-4-fluorophenylsulfonyl)piperidin-4-yl)-2-oxo-1H-imidazo[4,5-c]pyridin-3(2H)-yl)acetic acid] | > 30
CS(=O)(=O)c1ccccc1S(=O)(=O)N1CCC[C@@H](n2c(=O)n(CC(=O)O)c3cccnc32)C1 [Compound 113, (R)-2-(3-(1-(2-(methylsulfonyl)phenylsulfonyl)piperidin-3-yl)-2-oxo-2,3-dihydro-1H-imidazo[4,5-b]pyridin-1-yl)acetic acid] | < 1
O=C(O)Cn1c(=O)n(C2CCN(S(=O)(=O)c3ccc(-c4ccccc4)cc3)CC2)c2ncccc21 [Compound 81, 2-(3-(1-(biphenyl-4-ylsulfonyl)piperidin-4-yl)-2-oxo-2,3-dihydro-1H-imidazo[4,5-b]pyridin-1-yl)acetic acid] | 1 to 10
Cc1ccnc2c1n(CC(=O)O)c(=O)n2C1CCN(S(=O)(=O)c2ccc(Cl)cc2Cl)CC1 [Compound 122, 2-(3-(1-(2,4-dichlorophenylsulfonyl)piperidin-4-yl)-7-methyl-2-oxo-2,3-dihydro-1H-imidazo[4,5-b]pyridin-1-yl)acetic acid] | > 30
Cc1cccc(S(=O)(=O)N2CCC(n3c(=O)n(CC(=O)O)c4cccnc43)CC2)c1 [Compound 38, 2-(2-oxo-3-(1-(m-tolylsulfonyl)piperidin-4-yl)-2,3-dihydro-1H-imidazo[4,5-b]pyridin-1-yl)acetic acid] | 1 to 10

Further lines, results first:

IC50 [µM] | Compound
< 1 | Cc1ccccc1S(=O)(=O)N1CCC(n2c(=O)n(CC(=O)O)c3cccnc32)CC1 [Compound 94, 2-(2-oxo-3-(1-(o-tolylsulfonyl)piperidin-4-yl)-2,3-dihydro-1H-imidazo[4,5-b]pyridin-1-yl)acetic acid]
10 to 30 | COc1ccc(S(=O)(=O)N2CCC(n3c(=O)n(CC(=O)O)c4cccnc43)CC2)cc1OC [Compound 47, 2-(3-(1-(3,4-dimethoxyphenyl-sulfonyl)piperidin-4-yl)-2-oxo-2,3-dihydro-1H-imidazo[4,5-b]pyridin-1-yl)acetic acid]
10 to 30 | Cc1cnc2c(c1)n(CC(=O)O)c(=O)n2C1CCN(S(=O)(=O)c2ccc(F)cc2C)CC1 [Compound 125, 2-(3-(1-(4-fluoro-2-methylphenylsulfonyl)piperidin-4-yl)-6-methyl-2-oxo-2,3-dihydro-1H-imidazo[4,5-b]pyridin-1-yl)acetic acid]
1 to 10 | CC(C)(C)c1ccc(S(=O)(=O)N2CCC(n3c(=O)n(CC(=O)O)c4cccnc43)CC2)cc1 [Compound 65, 2-(3-(1-(4-tert-butylphenylsulfonyl)piperidin-4-yl)-2-oxo-2,3-dihydro-1H-imidazo[4,5-b]pyridin-1-yl)acetic acid]
> 30 | Cc1cnc2c(c1)n(CC(=O)O)c(=O)n2C1CCN(S(=O)(=O)c2ccccc2S(C)(=O)=O)CC1 [Compound 123, 2-(6-methyl-3-(1-(2-(methylsulfonyl)phenylsulfonyl)piperidin-4-yl)-2-oxo-2,3-dihydro-1H-imidazo[4,5-b]pyridin-1-yl)acetic acid]
1 to 10 | CCOc1ccc(S(=O)(=O)N2CCC(n3c(=O)n(CC(=O)O)c4cccnc43)CC2)cc1 [Compound 99, 2-(3-(1-(4-ethoxyphenylsulfonyl)piperidin-4-yl)-2-oxo-2,3-dihydro-1H-imidazo[4,5-b]pyridin-1-yl)acetic acid]
< 1 | N#Cc1ccccc1S(=O)(=O)N1CCC(n2c(=O)n(CC(=O)O)c3cccnc32)CC1 [Compound 70, 2-(3-(1-(2-cyanophenylsulfonyl)piperidin-4-yl)-2-oxo-2,3-dihydro-1H-imidazo[4,5-b]pyridin-1-yl)acetic acid]
1 to 10 | O=C(O)Cn1c(=O)n(C2CCN(S(=O)(=O)c3cccc(C(F)(F)F)c3)CC2)c2ncccc21 [Compound 41, 2-(2-oxo-3-(1-(3-(trifluoromethyl)phenylsulfonyl)piperidin-4-yl)-2,3-dihydro-1H-imidazo[4,5-b]pyridin-1-yl)acetic acid]
< 1 | O=C(O)Cn1c(=O)n([C@@H]2CCN(S(=O)(=O)c3ccc(Cl)cc3Cl)C2)c2ncccc21 [Compound 102, (R)-2-(3-(1-(2,4-dichlorophenylsulfonyl)pyrrolidin-3-yl)-2-oxo-2,3-dihydro-1H-imidazo[4,5-b]pyridin-1-yl)acetic acid]
< 1 | O=C(O)Cn1c(=O)n(C2CCN(S(=O)(=O)c3ccccc3Cl)CC2)c2ncccc21 [Compound 58, 2-(3-(1-(2-chlorophenylsulfonyl)piperidin-4-yl)-2-oxo-2,3-dihydro-1H-imidazo[4,5-b]pyridin-1-yl)acetic acid]
1 to 10 | Cc1cccc(CS(=O)(=O)N2CCC(n3c(=O)n(CC(=O)O)c4cccnc43)CC2)c1 [Compound 62, 2-(3-(1-(3-methylbenzylsulfonyl)piperidin-4-yl)-2-oxo-2,3-dihydro-1H-imidazo[4,5-b]pyridin-1-yl)acetic acid]
1 to 10 | Cc1cnc2c(c1)n(CC(=O)O)c(=O)n2C1CCN(S(=O)(=O)c2ccccc2Cl)CC1 [Compound 127, 2-(3-(1-(2-chlorophenylsulfonyl)piperidin-4-yl)-6-methyl-2-oxo-2,3-dihydro-1H-imidazo[4,5-b]pyridin-1-yl)acetic acid]
